Measurements from US12240822B2, “Naphthalene isoxazoline compound and application thereof” (SHANDONG C[…] SEA PHARMACEUTICAL TECHNOLOGY CO., LTD., priority 2023, dated 2025).
Values after ≈ are worked out from the molar mass of the structure shown. Values joined by “and” are separate entries in the source; they are usually repeats but may differ in a detail not shown here. Equal entries are not always repeated.

Legend:
Thrips palmi Karny = assay: Indoor toxicity test on Thrips palmi Karny adults, liquid tube drug film method with leaf soaking; assay type: in vivo; set-up: LC90 value of the A4 as fraction of the LC90 value of the C4 / LC90 value of the A4 as fraction of the LC90 value of the B4: unit not given beside the values; conditions: for LC50 / LC90: Thrips palmi Karny adults, 48 h after administration
Description: Through indoor tests, a liquid tube drug film method improved by a filter paper drug film method was used for evaluating the indoor toxicity effects of three raw drugs on Thrips palmi Karny.
Thrips palmi Karny was raised indoors in the insectary of the Plant Protection Institute of Shandong Academy of Agricultural Sciences.
Culture was performed in an illumination incubator, and raising and observation were performed under the conditions that the temperature was 25.0±2.0° C., the relative humidity was 75±5% and the photoperiod (L/D) was 14 h/10 h.
The insect for tests is an adult of Thrips palmi Karny.
Three test medicaments were prepared into a mother solution with methanol and then diluted with a Tween-80 aqueous solution having a mass concentration of 0.1% in equal proportions, and the concentration was set in equal proportions. • B4 concentration: 0.5, 1, 2, 4, 8, 16 mg/L; • C4 concentration: 25, 12.5, 6.25, 3.125, 1.5625, 0.7813 mg/L; • A4 concentration: 0.1, 0.05, 0.025, 0.0125, 0.00625, 0.003125 mg/L. 3.2.2 Test Repetition
Each processing was repeated 4 times, and 30 insects for tests were used for each repetition.
According to NY/T 1154.8-2007, the liquid tube drug film method improved by the filter paper drug film method was used for processing insects for tests. Medicaments for tests were diluted into 6 concentrations, a 1.5 mL centrifugal tube was filled with each concentration of liquid medicine respectively and allowed to stand for 4 h, then the liquid medicine was poured out, and the centrifugal tube was placed on a test table and air-dried for later use. A fine needle tip was heated with an alcohol lamp, and a small hole with a diameter of about 2-3 mm was formed at the bottom of the air-dried centrifugal tube by heating. One repetition was performed for each tube, and 4 repetitions were performed for each concentration. Leaf soaking: A hole puncher was used for punching fresh cabbage leaves into circular leaves with a diameter of 0.5 cm, and the circular leaves were respectively soaked in each concentration of liquid medicine for 10 s with leaf soaking in clear water as a control. The processed leaves were placed on absorbent paper and air-dried and then clamped with small tweezers into the centrifugal tubes with corresponding liquid medicine concentrations, and one leaf was placed flatly in each tube. Indoor insects for tests: An interface of an insect sucker was sealed with gauze and sleeves an orifice of the processed centrifugal tube, and the hole formed by heating at the bottom of the centrifugal tube was aligned with the insects for tests to enable the insects for tests to be sucked into the centrifugal tube along the airflow. The insects for tests were processed after control, about 30 insects for tests were sucked for each repetition, then a tube cover was covered, and the hole formed by heating was sealed with a sealing film. After related information was marked, the number of live insects and the number of dead insects were recorded 48 h later.
Test results were investigated 48 h after drug post-processing.
The logarithm of the medicament concentration (mg/L) was taken as an independent variable X, the probability value of a corrected death rate was taken as a dependent variable Y, and the LC50 value, LC90 value, 95% confidence limit and R2 of a toxicity regression line were computed by DPS software.

Myzus persicae Sulzer = assay: Indoor toxicity test on Myzus persicae Sulzer wingless aphids, insect soaking and leaf soaking method; assay type: in vivo; set-up: LC50 value of the A4 as fraction of the LC50 value of the C4 / LC50 value of the A4 as fraction of the LC50 value of the B4: unit not given beside the values; conditions: for LC50: Myzus persicae Sulzer wingless aphids, 48 h after administration
Description: The aphid species was Myzus persicae Sulzer, which was a sensitive population raised indoors in the bioassay room of the Plant Protection Institute of Shandong Academy of Agricultural Sciences. The temperature range was 24-26° C., the humidity range was 60%-80%, and the illumination was L:D=16 h:8 h. Aphids used for tests were wingless aphids.
Test medicaments were prepared into a mother solution with methanol and then diluted with a Tween-80 aqueous solution having a mass concentration of 0.1% in equal proportions. According to effective components, the B4 was set to 6 concentration gradients of 0.5 mg/L, 1 mg/L, 2 mg/L, 4 mg/L, 8 mg/L, and 16 mg/L; the C4 was set to 6 concentration gradients of 0.5 mg/L, 1 mg/L, 2 mg/L, 4 mg/L, 8 mg/L, and 16 mg/L; and the A4 was set to 6 concentration gradients of 0.05 mg/L, 0.1 mg/L, 0.2 mg/L, 0.4 mg/L, 0.8 mg/L, and 1.6 mg/L. A methanol aqueous solution having a volume concentration of 4% was taken as a blank control.
Insects for tests were processed according to an insect soaking method (NY/T 1154.6-2006) and a leaf soaking method (NY/T 1154.14-2008). Each medicament for tests was diluted to the set 6 concentrations for later use. Absorbent paper was placed at the bottom of a disposable plastic cup, a layer of filter paper was laid on the absorbent paper, and 2 mL of distilled water was added to keep moisture for later use. Leaves with aphids were cut into small leaves, each leaf has about 20 wingless aphids, and the leaves with aphids were gently soaked in the liquid medicine with tweezers and then taken out after 10 s, and placed on the absorbent paper and air-dried. The air-dried leaves were placed in the prepared plastic cups which were then covered, and one leaf was placed in each plastic cup. One repetition was performed for each plastic cup, and 4 repetitions were performed for each concentration. The plastic cups were placed in an illumination incubator, and the number of live aphids and the number of dead aphids were recorded 48 h later.
DPS software was used for processing, and the median lethal concentration LC50 and 95% confidence limit of 3 test medicaments on aphids at 48 h were determined.
The logarithm of the medicament concentration (mg/L) was taken as an independent variable X, the probability value of a corrected death rate was taken as a dependent variable Y, and the LC50 value, 95% confidence limit and R2 of a toxicity regression line were computed by DPS software.

[1] = 0.05 mg/L, 48 h, single repetitions 1-4
[2] = 0.1 mg/L, 48 h, single repetitions 1-4
[3] = 4 mg/L, 48 h, single repetitions 1-4
[4] = 8 mg/L, 48 h, single repetitions 1-4
[5] = 16 mg/L, 48 h, single repetitions 1-4

Question: Which Death rate (Thrips palmi Karny; 0.003125 mg/L, 48 h, Total/Average) does the source give for `CO/N=C/NC(=O)c1ccc(C2=NOC(c3cc(Cl)cc(C(F)(F)F)c3)(C(F)(F)F)C2)c2ccccc12` (stereo not drawn) [A4, 4-(5-(3-chloro-5-(trifluoromethyl)phenyl)-5-(trifluoromethyl)-4,5-dihydroisoxazol-3-yl)-N-((methoxylimino)methyl)-1-naphthyl formamide] here?
Answer: Its Death rate is 9.97%.

Question: And the Death rate (Thrips palmi Karny; 0.00625 mg/L, 48 h, Total/Average)?
Answer: Its Death rate is 37.74%.

Question: And the Death rate (Thrips palmi Karny; 0.00625 mg/L, 48 h, single repetitions 1-4)?
Answer: Its Death rate is 35.00% and 29.41% and 42.11% and 44.44%.

Question: And the Death rate (Thrips palmi Karny; 0.0125 mg/L, 48 h, Total/Average)?
Answer: Its Death rate is 61.14%.

Question: What about the Death rate (Thrips palmi Karny; 0.0125 mg/L, 48 h, single repetitions 1-4) of the same compound?
Answer: Its Death rate is 55.00% and 60.00% and 69.57%.

Question: What about the Death rate (Thrips palmi Karny; 0.025 mg/L, 48 h, Total/Average) of the same compound?
Answer: The Death rate was 80.47%.

Question: And the Death rate (Thrips palmi Karny; 0.025 mg/L, 48 h, single repetitions 1-4)?
Answer: The Death rate was 85.19% and 73.91% and 80.95% and 81.82%.

Question: What about the Death rate (Thrips palmi Karny; 0.05 mg/L, 48 h, Total/Average) of the same compound?
Answer: The Death rate was 91.01%.

Question: What about the Death rate (Thrips palmi Karny; [1]) of the same compound?
Answer: Its Death rate is 85.71% and 91.30% and 94.44% and 92.59%.

Question: And the Death rate (Thrips palmi Karny; 0.1 mg/L, 48 h, Total/Average)?
Answer: Its Death rate is 100.00%.

Question: What about the Death rate (Thrips palmi Karny; [2]) of the same compound?
Answer: Its Death rate is 100.00%.

Question: And the LC50 (Thrips palmi Karny)?
Answer: Its LC50 is 0.0123 mg/L (≈ 0.0226 µM).

Question: And the LC90 (Thrips palmi Karny)?
Answer: Its LC90 is 0.0705 mg/L (≈ 0.13 µM).

Question: What about the “LC90 value of the A4 as fraction of the LC90 value of the B4” value (Thrips palmi Karny; Thrips palmi Karny, 48 h) of the same compound?
Answer: Its value is 2/1000.

Question: And the “LC90 value of the A4 as fraction of the LC90 value of the C4” value (Thrips palmi Karny; Thrips palmi Karny, 48 h)?
Answer: The value was 4/1000.

Question: And the Death rate (Myzus persicae Sulzer; 0.05 mg/L, 48 h, Total)?
Answer: Its Death rate is 15.94%.

Question: What about the Death rate (Myzus persicae Sulzer; [1]) of the same compound?
Answer: Its Death rate is 15.00% and 17.24% and 16.13% and 15.38%.

Question: And the Death rate (Myzus persicae Sulzer; 0.1 mg/L, 48 h, Total)?
Answer: Its Death rate is 24.96%.

Question: And the Death rate (Myzus persicae Sulzer; [2])?
Answer: Its Death rate is 23.53% and 22.73% and 25.00% and 28.57%.

Question: And the Death rate (Myzus persicae Sulzer; 0.2 mg/L, 48 h, Total)?
Answer: Its Death rate is 33.73%.

Question: What about the Death rate (Myzus persicae Sulzer; 0.2 mg/L, 48 h, single repetitions 1-4) of the same compound?
Answer: The Death rate was 33.33% and 35.71% and 34.29% and 31.58%.

Question: What about the Death rate (Myzus persicae Sulzer; 0.4 mg/L, 48 h, Total) of the same compound?
Answer: The Death rate was 40.78%.

Question: What about the Death rate (Myzus persicae Sulzer; 0.4 mg/L, 48 h, single repetitions 1-4) of the same compound?
Answer: The Death rate was 50.00% and 43.48% and 37.50% and 32.14%.

Question: And the Death rate (Myzus persicae Sulzer; 0.8 mg/L, 48 h, Total)?
Answer: The Death rate was 63.22%.

Question: What about the Death rate (Myzus persicae Sulzer; 0.8 mg/L, 48 h, single repetitions 1-4) of the same compound?
Answer: Its Death rate is 61.29% and 67.74% and 60.53% and 63.33%.

Question: What about the Death rate (Myzus persicae Sulzer; 1.6 mg/L, 48 h, Total) of the same compound?
Answer: The Death rate was 84.47%.

Question: And the Death rate (Myzus persicae Sulzer; 1.6 mg/L, 48 h, single repetitions 1-4)?
Answer: Its Death rate is 87.10% and 81.25% and 86.21% and 83.33%.

Question: And the LC50 (Myzus persicae Sulzer)?
Answer: The LC50 was 0.439 mg/L (≈ 0.807 µM).

Question: What about the “LC50 value of the A4 as fraction of the LC50 value of the B4” value (Myzus persicae Sulzer; Myzus persicae Sulzer, 48 h) of the same compound?
Answer: Its value is 14/100.

Question: What about the “LC50 value of the A4 as fraction of the LC50 value of the C4” value (Myzus persicae Sulzer; Myzus persicae Sulzer, 48 h) of the same compound?
Answer: Its value is 40/100.

Question: What does the source list for `CO/N=C/NC(=O)c1ccc(C2=NOC(c3cc(Cl)cc(Cl)c3)(C(F)(F)F)C2)c2ccccc12` (stereo not drawn) [B4, 4-(5-(3,5-dichlorophenyl)-5-(trifluoromethyl)-4,5-dihydroisoxazol-3-yl)-N-((methoxylimino)methyl)-1-naphthyl formamide]?
Answer: Death rate (Thrips palmi Karny; 0.5 mg/L, 48 h, Total/Average): 18.31%; Death rate (Thrips palmi Karny; 1 mg/L, 48 h, Total/Average): 30.20%; Death rate (Thrips palmi Karny; 2 mg/L, 48 h, Total/Average): 33.85%; Death rate (Thrips palmi Karny; 2 mg/L, 48 h, single repetitions 1-4): 30.77% and 36.84% and 27.78% and 40.00%; Death rate (Thrips palmi Karny; 4 mg/L, 48 h, Total/Average): 47.56%; Death rate (Thrips palmi Karny; [3]): 52.00% and 41.38% and 54.55% and 42.31%; Death rate (Thrips palmi Karny; 8 mg/L, 48 h, Total/Average): 67.00%; Death rate (Thrips palmi Karny; [4]): 79.17% and 68.00% and 58.33% and 62.50%; Death rate (Thrips palmi Karny; 16 mg/L, 48 h, Total/Average): 98.68%; Death rate (Thrips palmi Karny; [5]): 100.00% and 94.74%; LC50 (Thrips palmi Karny): 3.33 mg/L (≈ 6.53 µM); LC90 (Thrips palmi Karny): 33.9739 mg/L (≈ 66.6 µM); Death rate (Myzus persicae Sulzer; 0.5 mg/L, 48 h, Total): 12.01%; Death rate (Myzus persicae Sulzer; 0.5 mg/L, 48 h, single repetitions 1-4): 10.00% and 12.50% and 13.04%; Death rate (Myzus persicae Sulzer; 1 mg/L, 48 h, Total): 20.73%; Death rate (Myzus persicae Sulzer; 1 mg/L, 48 h, single repetitions 1-4): 15.15% and 22.22% and 21.74% and 23.81%; Death rate (Myzus persicae Sulzer; 2 mg/L, 48 h, Total): 45.08%; Death rate (Myzus persicae Sulzer; 4 mg/L, 48 h, Total): 61.17%; Death rate (Myzus persicae Sulzer; [3]): 41.94% and 58.33% and 72.00% and 72.41%; Death rate (Myzus persicae Sulzer; 8 mg/L, 48 h, Total): 78.33%; Death rate (Myzus persicae Sulzer; [4]): 80.95% and 66.67% and 85.71% and 80.00%; Death rate (Myzus persicae Sulzer; 16 mg/L, 48 h, Total): 84.61%; Death rate (Myzus persicae Sulzer; [5]): 88.89% and 86.96% and 81.82% and 80.77%; LC50 (Myzus persicae Sulzer): 3.13 mg/L (≈ 6.14 µM)
